Reference: patent US6337093B1 (priority 1998, dated 2002)

B1: NK-lysin (protein, UniProt P22749 23-145, looked up)
Granulysin: RLSPEYYDLARAHLRDEEKSCPCLAQEGPQGDLLTKTQELGRDYRTCLTIVQKLKKMVDKPTQRSVSNAATRVCRTGRSRWRDVCRNFMRRYQSRVTQGLVAGETAQQICEDLRLCIPSTGPL
notes: Human cytolitic peptide which directly kills the target cells

What was measured:
[1] = tested on: tumor; experiment: Combination with bleomycin: tumor growth and life span; details: in vivo
Excerpt: As for interferons, interleucins and other known immunomoludatory materials, the efficacy of the pharmaceutical preparations of the present invention is restricted by the basic capacity of the immune system to recognize and attack cancer cells. However, the efficacy may be enhanced when the pharmaceutical preparations are combined with other antitumor drugs.

[2] = tested on: human and mouse lymphocytes; experiment: Active principle: stimulation of lymphocytes' cytotoxic anticancer activity in vitro; assay type: cell-based; details: comparative analysis of minimum active concentrations

Row | Molecule | Effect on tumor growth and life span [1] | Concentration to enhance cancer cell destruction relative to the effective concentration of the active principle [2]
1 | bleomycin | much less effective | –
2 | B1 | – | more than a million times
